Reference: US20110028518A1, “DEXLANSOPRAZOLE PROCESS AND POLYMORPHS” (DR. REDDY'S LABORATORIES LTD., priority 2008, published 2011)
Values belong to the compound of their own block, whether it stands above or below them.

Assays:
[1] = target: (H+—K+)-ATPase (Homo sapiens, UniProt P20648); settings: Biochemical Pharmacology (1991), 42(10), 1875-8; cited from earlier work
[2] = Storage stability studies (Example 28): water content and HPLC impurities; assay type: physicochemical
Text: A high performance liquid chromatography (HPLC) method for measuring the chemical purity of dexlansoprazole or a compound of formula (VII) of the present application, and for determination of their corresponding impurities, involves the use of a YMC-PAK ODS-A 100×4.6, 3 μm or equivalent column.
A high performance liquid chromatography (HPLC) method for measuring the impurity at RRT 1.98, and having a mass number of m/z 467, in the present application involves the use of a YMC-PRO C-18 100×4.6 mm, 3 microns or equivalent column.
Dexlansoprazole obtained from Example 23 was tested for its storage stability. The samples were stored in a tied clear polyethylene bag, placed in a black polyethylene bag filled with N2 along with a silica desiccant pouch, and the black bag was placed into a triple laminated bag along with silica gel pouch and then sealed and stored in HDPE drum packaging under the conditions noted in the following results tables. Chemical purity of the samples was measured by HPLC before and after storage.
The following impurities were monitored during stability testing:
2-mercaptobenzimidazole (designated “2-MB) having the following structure;
a “nitrosulphoxide” impurity (designated “NS”) having the following structure;
a “sulfide” impurity, having a chemical name 2-[[{4-(2,2,2-trifluoroethoxy)-3-methylpyridine-2-yl}methyl]thio]-1H-benzimidazole and the following structure;
a “sulfone” impurity, having a chemical name 2-[[{4-(2,2,2-trifluoroethoxy)-3-methylpyridine-2-yl}methyl]sulfonyl]-1H-benzimidazole and the following structure;
and an unidentified impurity at RRT (relative retention time) 1.98. Also given in the following tables are the concentration of the highest unidentified impurity as measured by HPLC, total impurities, and the water content. All results in the tables given below are expressed on a weight percent basis, and “ND” means not detected.

[3] = Specific surface area by the BET method; assay type: physicochemical
Protocol: The specific surface area of dexlansoprazole of the present application has been measured by a BET (Brunauer, Emmett and Teller) specific surface method using a Micromeritics Gemini surface area analyzer, model 2365. Samples for analysis were degassed at 40° C. under reduced pressure and the determination of the adsorption of nitrogen gas at 77° K was measured for relative pressure in the range of 0.05-0.3.

[4] = Bulk density (USP Test 616, method 2); assay type: physicochemical
Text: In an embodiment, the present application provides dexlansoprazole having bulk densities less than about 1 g/ml. Bulk density has been determined using Test 616 “Bulk Density and Tapped Density,” in United States Pharmacopoeia 29, United States Pharmacopeial Convention, Inc., Rockville, Md., 2005, in method 2.

[5] = Particle size distribution; assay type: physicochemical
Text: “10th volume percentile” as used herein, unless otherwise defined refers to the size of particles, below which 10% of the measured sample volume lies; “50th volume percentile” as used herein, unless otherwise defined refers to the size of particles, below which 50% of the measured samples volume lies, and “90th volume percentile” as used herein, unless otherwise defined refers to the size of particles, below which 90% of the measured samples volume lies.
Particle size distributions of dexlansoprazole particles may be measured with a Jayant Test Siever (e.g., using mesh number 60, mesh opening 250 μm). Particle size distributions of dexlansoprazole particles may also be measured using light scattering equipment such as a Malvern Master Sizer 2000 (helium neon laser source, dexlansoprazole suspended in light liquid paraffin, size range: 0.02 μm to 2000 μm). Other techniques are also useful.

[6] = At 25 ± 2° C. and 60 ± 5% Relative Humidity, 1 month
[7] = At 25 ± 2° C. and 60 ± 5% Relative Humidity, 2 months
[8] = At 25 ± 2° C. and 60 ± 5% Relative Humidity, 3 months
[9] = At 25 ± 2° C. and 60 ± 5% Relative Humidity, 15 days
[10] = At 25 ± 2° C. and 60 ± 5% Relative Humidity, 45 days
[11] = At 25 ± 2° C. and 60 ± 5% Relative Humidity, Initial
[12] = storage at 2-8° C. and at 25 ± 2° C./60 ± 5% RH, up to 3 months

Chain of (H+—K+)-ATPase (P20648 whole entry): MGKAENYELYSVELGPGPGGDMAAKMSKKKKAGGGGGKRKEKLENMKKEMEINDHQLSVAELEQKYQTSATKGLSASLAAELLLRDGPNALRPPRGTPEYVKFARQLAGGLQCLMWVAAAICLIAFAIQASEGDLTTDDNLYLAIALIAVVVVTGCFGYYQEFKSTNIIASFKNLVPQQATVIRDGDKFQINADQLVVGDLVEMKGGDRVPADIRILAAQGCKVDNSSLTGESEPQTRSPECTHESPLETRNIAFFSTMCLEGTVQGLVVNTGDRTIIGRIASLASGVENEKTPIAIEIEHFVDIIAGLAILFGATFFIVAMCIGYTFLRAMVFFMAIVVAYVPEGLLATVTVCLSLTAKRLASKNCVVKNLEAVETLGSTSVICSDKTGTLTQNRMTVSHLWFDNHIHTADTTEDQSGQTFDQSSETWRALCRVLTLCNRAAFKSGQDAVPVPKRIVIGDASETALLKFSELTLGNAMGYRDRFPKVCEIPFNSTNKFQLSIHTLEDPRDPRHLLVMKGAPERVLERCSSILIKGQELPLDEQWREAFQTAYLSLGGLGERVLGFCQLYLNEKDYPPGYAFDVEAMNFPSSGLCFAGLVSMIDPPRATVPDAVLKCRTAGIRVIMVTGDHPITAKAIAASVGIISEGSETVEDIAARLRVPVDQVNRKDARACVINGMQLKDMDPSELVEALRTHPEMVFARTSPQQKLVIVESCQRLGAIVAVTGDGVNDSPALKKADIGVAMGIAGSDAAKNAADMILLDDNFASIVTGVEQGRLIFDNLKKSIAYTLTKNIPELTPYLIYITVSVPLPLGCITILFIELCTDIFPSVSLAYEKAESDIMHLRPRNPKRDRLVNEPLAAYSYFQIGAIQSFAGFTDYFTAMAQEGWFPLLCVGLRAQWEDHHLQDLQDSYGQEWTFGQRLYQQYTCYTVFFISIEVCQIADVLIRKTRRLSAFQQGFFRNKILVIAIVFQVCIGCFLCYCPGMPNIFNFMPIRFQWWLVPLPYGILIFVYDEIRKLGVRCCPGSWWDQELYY
Chain of (H+—K+)-ATPase (P51164 whole entry partner): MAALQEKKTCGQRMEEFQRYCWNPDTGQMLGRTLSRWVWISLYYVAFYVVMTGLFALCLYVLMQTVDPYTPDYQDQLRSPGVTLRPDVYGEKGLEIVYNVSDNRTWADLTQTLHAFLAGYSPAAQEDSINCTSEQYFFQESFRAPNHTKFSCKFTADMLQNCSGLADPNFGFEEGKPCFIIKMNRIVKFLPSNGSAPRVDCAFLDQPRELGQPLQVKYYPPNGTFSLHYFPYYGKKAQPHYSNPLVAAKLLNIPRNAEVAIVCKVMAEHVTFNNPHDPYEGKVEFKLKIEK

SMILES: Cc1c(OCC(F)(F)F)ccnc1C[S@@+]([O-])c1nc2ccccc2[nH]1 [Dexlansoprazole, (R)-2-[[[3-methyl-4-(2,2,2-trifluoroethoxy)-2-pyridinyl]methyl]sulfinyl]-1H-benzimidazole]
- antisecretory activity due to the inhibition of (H+—K+)-ATPase [1]: antisecretory activity

- 2-MB ([2]; At 2-8° C., 1 month): 0.04 weight percent
- Highest Impurity ([2]; At 2-8° C., 1 month): 0.07 weight percent
- RRT 1.98 ([2]; At 2-8° C., 1 month): 0.06 weight percent
- Sulfide ([2]; At 2-8° C., 1 month): 0.45 weight percent
- Sulfone ([2]; At 2-8° C., 1 month): 0.57 weight percent
- Total impurities ([2]; At 2-8° C., 1 month): 1.54 weight percent
- Water ([2]; At 2-8° C., 1 month): 3.54 weight percent
- 2-MB ([2]; At 2-8° C., 2 months): 0.03 weight percent
- Highest Impurity ([2]; At 2-8° C., 2 months): 0.07 weight percent
- RRT 1.98 ([2]; At 2-8° C., 2 months): 0.06 weight percent
- Sulfide ([2]; At 2-8° C., 2 months): 0.50 weight percent
- Sulfone ([2]; At 2-8° C., 2 months): 0.61 weight percent
- Total impurities ([2]; At 2-8° C., 2 months): 1.76 weight percent
- Water ([2]; At 2-8° C., 2 months): 2.61 weight percent
- 2-MB ([2]; At 2-8° C., 3 months): 0.02 weight percent
- Highest Impurity ([2]; At 2-8° C., 3 months): 0.07 weight percent
- RRT 1.98 ([2]; At 2-8° C., 3 months): 0.06 weight percent
- Sulfide ([2]; At 2-8° C., 3 months): 0.48 weight percent
- Sulfone ([2]; At 2-8° C., 3 months): 0.59 weight percent
- Total impurities ([2]; At 2-8° C., 3 months): 1.63 weight percent
- Water ([2]; At 2-8° C., 3 months): 2.24 weight percent
- 2-MB ([2]; At 2-8° C., Initial): 0.02 weight percent
- Highest Impurity ([2]; At 2-8° C., Initial): 0.07 weight percent
- RRT 1.98 ([2]; At 2-8° C., Initial): 0.03 weight percent
- Sulfide ([2]; At 2-8° C., Initial): 0.47 weight percent
- Sulfone ([2]; At 2-8° C., Initial): 0.59 weight percent
- Total impurities ([2]; At 2-8° C., Initial): 1.42 weight percent
- Water ([2]; At 2-8° C., Initial): 2.90 weight percent
- 2-MB [2, 6]: 0.05 weight percent
- Highest Impurity [2, 6]: 0.09 weight percent
- RRT 1.98 [2, 6]: 0.14 weight percent
- Sulfide [2, 6]: 0.47 weight percent
- Sulfone [2, 6]: 0.55 weight percent
- Total impurities [2, 6]: 1.80 weight percent
- Water [2, 6]: 2.89 weight percent
- 2-MB [2, 7]: 0.04 weight percent
- Highest Impurity [2, 7]: 0.07 weight percent
- RRT 1.98 [2, 7]: 0.15 weight percent
- Sulfide [2, 7]: 0.50 weight percent
- Sulfone [2, 7]: 0.61 weight percent
- Total impurities [2, 7]: 1.99 weight percent
- Water [2, 7]: 1.54 weight percent
- 2-MB [2, 8]: 0.04 weight percent
- Highest Impurity [2, 8]: 0.07 weight percent
- RRT 1.98 [2, 8]: 0.17 weight percent
- Sulfide [2, 8]: 0.50 weight percent
- Sulfone [2, 8]: 0.61 weight percent
- Total impurities [2, 8]: 1.89 weight percent
- Water [2, 8]: 1.50 weight percent
- 2-MB [2, 9]: 0.03 weight percent
- Highest Impurity [2, 9]: 0.08 weight percent
- RRT 1.98 [2, 9]: 0.09 weight percent
- Sulfide [2, 9]: 0.50 weight percent
- Sulfone [2, 9]: 0.61 weight percent
- Total impurities [2, 9]: 1.76 weight percent
- Water [2, 9]: 1.68 weight percent
- 2-MB [2, 10]: 0.04 weight percent
- Highest Impurity [2, 10]: 0.06 weight percent
- RRT 1.98 [2, 10]: 0.14 weight percent
- Sulfide [2, 10]: 0.52 weight percent
- Sulfone [2, 10]: 0.64 weight percent
- Total impurities [2, 10]: 1.93 weight percent
- Water [2, 10]: 1.29 weight percent
- 2-MB [2, 11]: 0.02 weight percent
- Highest Impurity [2, 11]: 0.07 weight percent
- RRT 1.98 [2, 11]: 0.03 weight percent
- Sulfide [2, 11]: 0.47 weight percent
- Sulfone [2, 11]: 0.59 weight percent
- Total impurities [2, 11]: 1.42 weight percent
- Water [2, 11]: 2.90 weight percent
- Physical form during stability testing [2, 12]: remained in an amorphous form
SMILES: Cc1c(OCC(F)(F)F)ccnc1C[S@@+]([O-])c1nc2ccccc2[nH]1 [Example 23, dexlansoprazole]
- Appearance during stability testing [2, 12]: maintained their initial cream color powder form

- specific surface area by the BET method [3]: 1.0608 m^2/g
SMILES: Cc1c(OCC(F)(F)F)ccnc1C[S@@+]([O-])c1nc2ccccc2[nH]1 [Example 25, dexlansoprazole]

- Bulk density ([4]; after tapping): 0.65 g/mL
- Bulk density ([4]; before tapping): 0.47 g/mL
- Particle size distribution d(0.1) [5]: 0.896 μm
- Particle size distribution d(0.5) [5]: 5.308 μm
- Particle size distribution d(0.9) [5]: 12.938
SMILES: Cc1c(OCC(F)(F)F)ccnc1C[S@@+]([O-])c1nc2ccccc2[nH]1 [Example 24, dexlansoprazole]
